From patent publication US20240408071A1, “NOVEL COMBINATION OF SEROTONIN RECEPTOR (5-HTR2B) ANTAGONIST AND AN IMMUNOMODULATOR AND CHEMOTHERAPEUTIC DRUGS FOR INHIBITION OF CANCER” (NATIONAL CENTRE FOR CELL SCIENCE, priority 2021, published 2024)

Key:
PD-L1 = assay: Serum PD-L1 ELISA in MC38 tumor-bearing mice; type: in vivo, C57BL/6J mice; conditions: MC38-induced colon tumor-bearing mice, SSRI treatment
Protocol: FIG. 13 depicts 5-HTR2B signaling promotes PD-L1 expression on the MC38 cell line in vitro: (A-B) MC38 cells are treated with 5-HTR2B agonist (BW-723C86-50 μM), serotonin (100 μM), and 5-HTR2B antagonist (RS-127445-50 μM) for 72 hours, and the PD-L1 expression was checked by flow cytometry and the percentage of PD-L1^+ MC38 cells was plotted. (C-D) MFI of PD-L1 from the above experiment were plotted as histogram overlay (C) or as statistical data points (D). (E) Relative PD-L1 mRNA expression in MC38 cells following BW-723C86 and RS-127445 treatment for 48 hours. Here the values are shown as a fold change as compared to control MC38 cells. […] All the statistical analysis was performed using either Student's ‘t’ test or two-way ANOVA using Sidak's multiple comparison test. *P<0.05; **P<0.01; […]; ****P<0.0001 Error bar represents mean±standard error of means (SEM).
(§1) Universal competitive serotonin ELISA kit was purchased from Novus biological (Catalog #NBP2-68127), and ELISA was performed according to the manufacturer's protocol. Mouse PD-L1 DuoSet ELISA kit was procured from the R&D System (Catalog #DY1019-05), and the ELISA was performed according to the manufacturer's guidelines.
To understand it, investigations were done on whether 5-HTR2B signaling also affects the surface expression of molecules that alters inflammatory and cytotoxic immune cells. Among different molecules, PD-L1 is of particular interest as it is an immune checkpoint ligand that affects cytotoxic T-cell responses toward cancer. […] (FIG. 13F).

MC38 colon cancer cells = assay: MC38 colon tumor growth (tumor volume) in C57BL/6 mice; type: in vivo; conditions: sertraline hydrochloride 15 mg/kg/week (FIG. 7C)
Protocol: Tumor volumes were measured and plotted. (B) MC38 colon cancer cells were injected subcutaneously into the right flank of C57BL/6 mice. After seven days when tumors became palpable, one group was treated with 5-HTR7 antagonist SB-269970 (n=6 mice; 3 mg/kg/day) or left untreated (n=6 mice). Tumor volume was measured and plotted. (C) After seven days of the setting of tumor growth, one group was treated with a serotonin transporter blocker (SSRI) sertraline hydrochloride (n=6 mice; 15 mg/kg/week) or left untreated (n=6 mice). Tumor volume was measured and plotted. (D) C57BL/6 mice were given subcutaneously injected MC38 cells. After seven days of tumor growth, one group of mice was treated with different doses of 5-HTR2B antagonist SB-215505 (n=6). Tumor volume was measured and plotted. (E) C57BL/6 mice were given subcutaneously injected MC38 cells. After seven days of the tumor growth, one group of mice was treated with different doses of 5-HTR2B antagonist SB-215505 (n=6), one group treated with 5-HTR2B agonist BW-723C86 (n=6; 4 mg/kg/day). Tumor volume was measured and plotted. (F) MC38 cells were subcutaneously injected into C57BL/6 mice. After seven days when the tumor became palpable in mice, one group of mice was treated with FDA-approved 5-HTR2B antagonist cariprazine (Carispec; Sun pharma) via oral gavage (n=5 mice; dose 5 mg/kg body weight/day) or left untreated (n=5 mice). Tumor growth was measured and plotted. […] All the statistical analysis was performed using Student's ‘t’ test or two-way ANOVA using Sidak's multiple comparison test. *P<0.05; **P<0.01; ***P<0.00; ****P<0.0001 Error bar represents mean±standard error of means (SEM).

serotonin = assay: Serum serotonin level in MC38 colon tumor-bearing mice; type: in vivo; conditions: MC38-induced colon tumor-bearing mice, SSRI treatment
Protocol: This secretory variant of PD-L1 is responsible for most of the resistance to the anti-PD-L1 therapy in the tumor.
as §1

Question: Which results are given for `CN[C@H]1CC[C@@H](c2ccc(Cl)c(Cl)c2)c2ccccc21` [sertraline]?
Answer: secretory PD-L1 variant level in the serum (PD-L1): enhanced the secretory PD-L1 variant level in the serum; MC38 tumor growth (MC38 colon cancer cells): promotes MC38 tumor growth; free serotonin level in the serum (serotonin): increased free serotonin level in the serum
